Laboratory results from patent US10478425B2, “5-phenylazaindole derivative having AMPK-activating activity” (Shionogi & Co., Ltd., priority 2016, dated 2019).
Where “and” joins values, the source holds several entries; their conditions need not be identical. Equal values may be shown once. Read-outs that look alike come from different tables or passages of the source.

Biological target: T1, Human AMPK α2β2γ1 (Homo sapiens, UniProt O43741+P54646)
T1 construct: The full length cDNAs of human AMPK β2 (NM_005399.3) and human AMPK α2 (NM_006252.3); The full length cDNAs of human AMPK β2 (NM_005399.3); the full length cDNA of human AMPK γ1 (NM_002733.3) had been inserted into pET28b(+); 6×His (N); made in house; host or cells: Escherichia coli BL21 CodonPlus (DE3)-RIL
T1 sequence (P54646 whole entry): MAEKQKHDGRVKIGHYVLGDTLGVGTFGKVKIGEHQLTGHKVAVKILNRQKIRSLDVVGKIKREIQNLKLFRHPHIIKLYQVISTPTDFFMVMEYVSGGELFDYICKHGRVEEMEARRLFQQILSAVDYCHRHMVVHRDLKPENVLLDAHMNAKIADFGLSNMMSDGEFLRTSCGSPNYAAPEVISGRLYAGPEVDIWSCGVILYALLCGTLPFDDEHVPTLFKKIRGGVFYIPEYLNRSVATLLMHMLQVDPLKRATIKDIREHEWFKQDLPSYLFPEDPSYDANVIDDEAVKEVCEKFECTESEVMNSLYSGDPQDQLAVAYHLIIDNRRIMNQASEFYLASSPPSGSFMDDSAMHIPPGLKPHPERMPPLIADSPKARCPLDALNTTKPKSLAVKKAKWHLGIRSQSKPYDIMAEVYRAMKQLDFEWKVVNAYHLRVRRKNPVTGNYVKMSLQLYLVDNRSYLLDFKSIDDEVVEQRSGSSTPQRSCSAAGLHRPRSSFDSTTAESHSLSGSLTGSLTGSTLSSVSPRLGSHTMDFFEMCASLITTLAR
T1 sequence (O43741 whole entry): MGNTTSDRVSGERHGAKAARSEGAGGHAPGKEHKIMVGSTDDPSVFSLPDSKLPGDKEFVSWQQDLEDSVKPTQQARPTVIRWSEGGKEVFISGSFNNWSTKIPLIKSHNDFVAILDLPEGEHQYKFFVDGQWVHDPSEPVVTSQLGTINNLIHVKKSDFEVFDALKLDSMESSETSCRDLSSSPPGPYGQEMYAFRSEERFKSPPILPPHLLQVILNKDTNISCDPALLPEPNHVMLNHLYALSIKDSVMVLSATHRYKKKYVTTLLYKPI
T1 sequence (P54619 whole entry partner): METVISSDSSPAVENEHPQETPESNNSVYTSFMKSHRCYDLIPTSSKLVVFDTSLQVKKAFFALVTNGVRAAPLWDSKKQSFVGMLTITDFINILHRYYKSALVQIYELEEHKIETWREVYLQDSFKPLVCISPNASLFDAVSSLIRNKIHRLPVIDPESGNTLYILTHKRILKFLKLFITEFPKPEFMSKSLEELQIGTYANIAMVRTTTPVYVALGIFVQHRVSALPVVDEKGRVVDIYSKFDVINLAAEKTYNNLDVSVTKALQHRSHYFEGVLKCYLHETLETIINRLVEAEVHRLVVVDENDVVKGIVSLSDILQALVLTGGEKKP
Assay: Test Example 2: activation of phosphorylated human AMPK α2β2γ1 (mobility-shift kinase assay, FL-Peptide 7)
Format: biochemical
Conditions: for EC150: compound concentration showing 150% relative to the control (100%), human AMPK α2β2γ1 phosphorylated with CaMKK2; for Emax: maximum rate of increase in activity within the measurement range, control = 100%
Experimental: The full length cDNAs of human AMPK β2 (NM_005399.3) and human AMPK α2 (NM_006252.3) were inserted into the MCS1 and MCS2 of the pETDuet-1 vector to prepare a human AMPK β2 and human AMPK α2 (6×His tag at the 5′ terminus) expressing plasmid. The plasmid was cotransfected with an expression plasmid, in which the full length cDNA of human AMPK γ1 (NM_002733.3) had been inserted into pET28b(+), into BL21 CodonPlus (DE3)-RIL to obtain an expression strain. The expression strain was cultured in TB medium, followed by induction with 0.5 mM IPTG, and cultured at 25° C. for 3 hours and then harvested. After ultrasonication, supernatant was collected and applied to Histrap FF column (GE) and RESOUECE Q column (GE) to prepare 12.5 mg of purified sample containing three types of subunit from 1.8 L of broth.
An expression vector, in which the full length cDNA of human CAMKK β (NM_172226.1) had been inserted into pGEX-6P-3, was transfected into BL21 Star (DE3). The expression strain was cultured in TB medium, followed by induction with 0.5 mM IPTG, and cultured at 25° C. for 3 hours and then harvested. After ultrasonication, supernatant was collected and applied to GSTrap FF column (GE) to prepare 14 mg of GST-fused CAMKK β from 720 ml of broth.
Thus, phosphorylation treatment was carried out as pretreatment.
Human AMPK α2β2γ1 in an amount to give a conversion rate of approximately 10% by reaction for 2 hours, and CaMKK2 in an amount capable of sufficiently imparting activity to AMPK for one hour were mixed in a buffer solution consisting of a 50 mM HEPES-NaOH buffer solution (pH 7.0), 100 mM NaCl, 5 mM magnesium chloride, 0.1% bovine serum albumin, 0.2 mM sodium orthovanadate(V), 1 mM ethylene glycol-bis(2-aminoethyl ether)-N,N,N′,N′-tetraacetic acid (EGTA), 5 mM disodium β-glycerophosphate, 1 mM dithiothreitol and 0.2 mM ATP, and the resulting liquid was left to stand at 25° C. for 1 to 1.5 hours to sufficiently phosphorylate AMPK.
After that, to the enzyme liquid, which had been subjected to phosphorylation treatment, a compound dissolved in DMSO was added so as to have a 1% DMSO concentration. The resulting liquid was left to stand for 10 minutes.
To the liquid, a substrate solution consisting of a 50 mM HEPES-NaOH buffer solution (pH 7.0), 100 mM NaCl, 10 mM magnesium chloride, 0.1% bovine serum albumin, 0.2 mM sodium orthovanadate(V), 1 mM ethylene glycol-bis(2-aminoethyl ether)-N,N,N′,N′-tetraacetic acid (EGTA), 5 mM disodium β-glycerophosphate, 2 mM dithiothreitol, 0.4 mM ATP and 3 μM FL-Peptide 7 (manufactured by Caliper Life Sciences, Inc.) was added in equal amount (10 μl in total). The resulting liquid was allowed to react at 25° C. for 2 hours, then 10 μl of 20 mM EDTA was added thereto to stop the reaction.
To detect phosphorylated fluorescent substrates, the reaction mixture was applied to a measuring device, LabChip EZ Reader II manufactured by Caliper Life Science, Inc., for detecting fluorescence by using differences in mobility due to differences in charge. The setting conditions for the device were pressure, −1.5 PSI; upstream voltage, −2250 V; downstream voltage, −400 V; post sample buffer sip time, 40 seconds; final delay, 120 seconds; and peak order, Product First.
A conversion rate was calculated from the peak heights of the obtained substrate and product. The conversion rate when not containing a compound was used as a control, and a concentration dependent curve was made by plotting the rate of increase in activity to the control at each concentration of a compound.

SMILES | EC150 [nM] | Emax (read-out: Emax) [%] | Emax
CNC(=O)COc1ccc(-c2ccc(-c3nc4cc(O[C@@H]5CO[C@H]6[C@@H]5OC[C@H]6O)[nH]c4cc3F)cc2)cc1 [Compound I-2-47] | 2.2 | 635 | 
CS(C)(=O)=Nc1ccc(-c2ccc(-c3nc4cc(O[C@@H]5CO[C@H](CO)[C@@H]5O)[nH]c4cc3F)cc2)cc1 [Compound I-2-19] | 67 | 192 | 
C[S+]([O-])c1ccc(-c2ccc(-c3nc4cc(O[C@@H]5CO[C@H]6[C@@H]5OC[C@H]6O)[nH]c4cc3F)cc2)cc1 (single isomer, unassigned) [Compound I-2-09] | 1.9 |  | 598%
CCC(=O)NC1CCN(c2ccc(-c3nc4cc(O[C@@H]5CO[C@H]6[C@@H]5OC[C@H]6O)[nH]c4cc3F)cc2)CC1 [Compound I-1-12] |  |  | 497% and 523%
COCCOc1ccc(-c2ccc(-c3nc4cc(O[C@@H]5CO[C@H]6[C@@H]5OC[C@H]6O)[nH]c4cc3F)cc2)nc1 [Compound I-2-52] | 7.2 | 532 | 
CO[C@H]1[C@@H](CO)OC[C@H]1Oc1cc2nc(-c3ccc(-c4ccc(N=S(C)(C)=O)cc4)cc3)c(F)cc2[nH]1 [Compound I-2-26] | 8.6 | 298 | 
COCC(=O)Nc1ccc(-c2ccc(-c3nc4cc(O[C@@H]5CO[C@H](CO)C5)[nH]c4cc3F)cc2)cc1 [Compound I-2-74] | 1.2 | 656 | 
O=C(c1ccc(-c2ccc(-c3nc4cc(O[C@@H]5CO[C@H]6[C@@H]5OC[C@H]6O)[nH]c4cc3F)cc2)cc1)N1CCCC1 [Compound I-1-09] | 4.8 | 475 | 
CNC(=O)CCOc1ccc(-c2ccc(-c3nc4cc(O[C@@H]5CO[C@H]6[C@@H]5OC[C@H]6O)[nH]c4cc3F)cc2)cc1 [Compound I-2-54] | 1.7 | 633 | 
CN1CCN(c2ccc(-c3ccc(-c4nc5cc(O[C@@H]6CO[C@H]7[C@@H]6OC[C@H]7O)[nH]c5cc4F)cc3)cc2)C1=O [Compound I-2-53] | 4.2 | 638 | 
OCCSc1ccc(-c2ccc(-c3nc4cc(O[C@@H]5CO[C@H]6[C@@H]5OC[C@H]6O)[nH]c4cc3F)cc2)cc1 [Compound I-2-16] | 1.8 | 623 | 
COCCCc1ccc(-c2ccc(-c3nc4cc(O[C@@H]5CO[C@H]6[C@@H]5OC[C@H]6O)[nH]c4cc3F)cc2)cc1 [Compound I-2-29] | 48 | 367 | 
O[C@@H]1CO[C@H]2[C@@H]1OC[C@H]2Oc1cc2nc(-c3ccc(-c4ccc(C5=NCCN5)cc4)cc3)c(F)cc2[nH]1 [Compound I-1-38] | 0.99 | 470 | 
CS(C)(=O)=NC1CC=C(c2ccc(-c3nc4cc(O[C@@H]5CO[C@H](CO)C5)[nH]c4cc3F)cc2)CC1 (some centres unmarked) [Compound I-2-73] | 4.2 | 681 | 
O[C@@H]1CO[C@H]2[C@@H]1OC[C@H]2Oc1cc2nc(-c3ccc(-c4ccc(OC5CNOC5)cc4)cc3)c(F)cc2[nH]1 (some centres unmarked) [Compound I-2-27] | 3.7 | 375 | 
CS(=O)(=O)NC1CC=C(c2ccc(-c3nc4cc(O[C@@H]5CO[C@H]6[C@@H]5OC[C@H]6O)[nH]c4cc3F)cc2)CC1 (some centres unmarked) [Compound I-1-17] | 3.4 | 483 | 
CCO[C@H]1[C@@H](CO)OC[C@H]1Oc1cc2nc(-c3ccc(-c4ccc(N=S(C)(C)=O)cc4)cc3)c(F)cc2[nH]1 [Compound I-2-55] | 19 | 507 | 

SMILES | EC150 [nM] | Emax (read-out: Emax) [%] | Emax
CN(C)S(=O)(=O)c1ccc(-c2ccc(-c3nc4cc(O[C@@H]5CO[C@H]6[C@@H]5OC[C@H]6O)[nH]c4cc3F)cc2)nc1 [Compound I-1-33] | 6.5 | 464 | 
CS(=O)(=O)c1ccc(-c2ccc(-c3nc4cc(O[C@@H]5CO[C@H](CO)C5)[nH]c4cc3F)cc2)nc1 [Compound I-2-94] | 0.99 | 652 | 
O[C@@H]1CO[C@H]2[C@@H]1OC[C@H]2Oc1cc2nc(-c3ccc(-c4ccc(Oc5cccnc5)cc4)cc3)c(F)cc2[nH]1 [Compound I-2-36] | 43 | 385 | 
O=C(c1ccc(-c2ccc(-c3nc4cc(O[C@@H]5CO[C@H](CO)C5)[nH]c4cc3F)cc2)cc1)N1CCOCC1 [Compound I-2-81] | 0.78 | 591 | 
CO[C@@H]1CO[C@H]2[C@@H]1OC[C@H]2Oc1cc2nc(-c3ccc(-c4ccc(N=S(C)(C)=O)cc4)cc3)c(F)cc2[nH]1 [Compound I-1-07] | 15 | 189 | 
OCCOc1ccc(-c2ccc(-c3nc4cc(O[C@@H]5CO[C@H]6[C@@H]5OC[C@H]6O)[nH]c4cc3F)cc2)cc1 [Compound I-1-72] | 3 | 353 | 
COC(=O)NC1CC=C(c2ccc(-c3nc4cc(O[C@@H]5CO[C@H]6[C@@H]5OC[C@H]6O)[nH]c4cc3F)cc2)CC1 (some centres unmarked) [Compound I-1-23] | 2.9 |  | 436%
CN(C)S(=N)(=O)c1ccc(-c2ccc(-c3nc4cc(O[C@@H]5CO[C@H]6[C@@H]5OC[C@H]6O)[nH]c4cc3F)cc2)cc1 (some centres unmarked) [Compound I-2-11] | 2.1 | 408 | 
C[S+]([O-])c1ccc(-c2ccc(-c3nc4cc(O[C@@H]5CO[C@H](CO)C5)[nH]c4cc3F)cc2)cc1 (single isomer, unassigned) [Compound I-2-07] | 0.68 |  | 638%
O=C(c1ccc(-c2ccc(-c3nc4cc(O[C@@H]5CO[C@H](CO)C5)[nH]c4cc3F)cc2)cc1)N1CCCC1 [Compound I-2-49] | 0.88 | 684 | 
O[C@@H]1CO[C@H]2[C@@H]1OC[C@H]2Oc1cc2nc(-c3ccc(-c4ccc(OC5CNC5)cc4)cc3)c(F)cc2[nH]1 [Compound I-1-63] | 3.2 | 361 | 
COCCN(C)C(=O)c1ccc(-c2ccc(-c3nc4cc(O[C@@H]5CO[C@H](CO)C5)[nH]c4cc3F)cc2)cc1 [Compound I-2-83] | 0.73 | 581 | 
CS(C)(=O)=Nc1ccc(-c2ccc(-c3nc4cc(O[C@@H]5CO[C@H](CO)[C@H]5O)[nH]c4cc3F)cc2)cc1 [Compound I-2-23] | 28 | 224 | 
CCC(=O)NC1CC(c2ccc(-c3nc4cc(O[C@@H]5CO[C@H]6[C@@H]5OC[C@H]6O)[nH]c4cc3F)cc2)C1 (some centres unmarked) [Compound I-1-40] | 29 | 541 | 
CC(=O)N(C)c1ccc(-c2ccc(-c3nc4cc(O[C@@H]5CO[C@H]6[C@@H]5OC[C@H]6O)[nH]c4cc3F)cc2)cc1 [Compound I-1-36] | 1.7 | 437 | 
O[C@@H]1CO[C@H]2[C@@H]1OC[C@H]2Oc1cc2nc(-c3ccc(N4CCC(OC5CCNC5)CC4)cc3)c(F)cc2[nH]1 (some centres unmarked) [Compound I-2-57] | 26 | 601 | 
